Test results taken from patent publication US20160120979A1, “METHOD OF APPLYING A COMPOSITION AND PHARMACEUTICAL COMPOSITION WITH A REGIMEN OF ADMINISTERING IT” (priority 2013, published 2016).
In brackets after ≈: the same amount, converted by molar mass. Like-named read-outs stand apart in the source and are kept apart here.

Experiments:
[1] = test system: Staphylococcus aureus MU500; format: cell-based
Experimental: (§1) 15′000′000 multi-resistant bacteriae (0.050 ml of a McFarland of 1) were put on 40 mm diameter petri dishes. The petri dishes comprised MH agar with or without antibiotic.
(§2) The LED power during 0.02 ms was measured to be 0.63 W on a Thorlabs power sensor with a surface area of 2.2×2.2 mm representing a power of 13 mW/cm^2.
(§3) After the irradiation treatment according to experiment 12, remaining bacteria were allowed to proliferate and then were subject to the treatment according to experiment 12 again in order to test for possible new resistances to the treatment. The values in the following table are designated as in experiment 12: […]

Acinetobacter [2] = format: cell-based; conditions: for D Acinetobacter (irradiation), replication, second treatment / C: Acinetobacter (no irradiation), replication, second treatment: remaining bacteria of experiment 12 proliferated and treated again
Experimental: as §1, §2, §3

[3] = test system: MU50 multidrug-resistant Staphylococcus aureus strain (MRSA); assay: Minimum inhibitory concentration (MIC) on MU50; format: cell-based
Source text: For some of the experimental tests MU50 bacteria were used. MU50 is a multidrug-resistant Staphylococcus aureus strain (MRSA). MRSA are bacteria which have naturally evolved under antibiotic selection pressure and which are known to be resistant to antibiotics including penicillins (methicillin, dicloxacillin, nafcillin, oxacillin, etc.) and cephalosporins. MU50 is additionally resistant to macrolides, quinolones and aminoglycosides.
The minimum inhibitory concentration (MIC), which inhibits the visible growth of a microorganism after an overnight incubation was determined for the following antibiotics: […]

[4] = test system: Staphylococcus aureus MU500; assay: Experiment 12: replication on antibiotic agar after pulsed 400 nm irradiation; format: cell-based; conditions: 24 hours incubation; for E: Staphylococcus aureus MU500 (no irradiation), replication: antibiotic 10 mg/l in MH agar; for F: Staphylococcus aureus MU500 (irradiation), replication: antibiotic 10 mg/l, 400 nm LED pulses 0.02 ms, 1 kHz, 10 minutes
Experimental: as §1, §2

Pseudomonas aeruginosa = assay: as above; format: cell-based; conditions: 24 hours incubation; for A: Pseudomonas aeruginosa (no irradiation), replication: antibiotic 10 mg/l in MH agar; for B: Pseudomonas aeruginosa (irradiation), replication: antibiotic 10 mg/l, 400 nm LED pulses 0.02 ms, 1 kHz, 10 minutes
Experimental: as §1
(§4) […]. The LED power during 0.02 ms was measured to be 0.63 W on a Thorlabs power sensor with a surface area of 2.2×2.2 mm representing a power of 13 mW/cm^2.

Acinetobacter [5] = assay: as above; format: cell-based; conditions: 24 hours incubation; for C: Acinetobacter (no irradiation), replication: antibiotic 10 mg/l in MH agar; for D Acinetobacter (irradiation), replication: antibiotic 10 mg/l, 400 nm LED pulses 0.02 ms, 1 kHz, 10 minutes
Experimental: as §1, §4

[6] = test system: PA01 Pseudamonas aeruginosa MultiR genetically modified bacteria; assay: Experiment 8: growth of PA01 after pulsed 400 nm photo-activation of antibiotics; format: cell-based; conditions: antibiotic concentration per the 12th table
Experimental: (§5) In Experiments 7 to 9 the effect of some exemplary photo-activated antibiotics is tested on two different multi resistant bacterial strains:
(§6) In Experiment 8 and 9 PA01 Pseudamonas aeruginosa MultiR genetically modified bacteria were tested. This PA01 strain is genetically modified with a quinolone pump and conferring resistance to antibiotics of the quinolone group of antibiotics.
(§7) G→Pulse ON 5 ms energy 0.05 J, OFF 45 ms during 10 minutes
(§8) The following experimental procedure are the same for experiments 7, 8 and 9: The bacterial cells were grown in Mueller Hinton Broth in the presence of an antibiotic at a concentration according to the table below until they reached turbidity of 1 according to the McFarland Standard (=3×10^8 bacteria/ml):
(§9) For each antibiotic two patterns of pulsed exposure for photo-activation were applied and a control without exposure to radiation. For example in experiment 7 and 8, pulse ON 10 ms energy 0.1 J, OFF 90 ms during 10 minutes and pulse ON 5 ms energy 0.05 J, OFF 45 ms i.e. in both treatments a 10% ON and a 90% OFF pattern and both for a duration of 10 minutes.
(§10) Incubation for 2 to up 36 hours at 37° C. until time=t2
(§11) At time=t2 one of the antibiotics is added to obtain the same concentration of antibiotic as during the original growth phase prior to time t1=0 as listed in the table above.
(§12) Incubation for further 2 to 4 hours at 37° C. in the presence of antibiotic until time=t3.
(§13) The absorbance value correlates to the colloidal effect and the number of bacteria in the sample.
(§14) These tables below list for each bacterial sample the difference in absorption values representing the difference in the number of bacteria present in each sample by subtracting the absorption values at time t4, which is the last measurement of the growth curve presented in FIGS. 3 to 5 from the last absorption value before the treatment with light at time t3. The values of A and G represent the effect of the treatment of the bacterial samples with two different light patterns for activation of the antibiotic as described above. The values of D correspond to the control samples without photo-activation of the antibiotic: […]

[7] = test system: PA01 Pseudamonas aeruginosa MultiR genetically modified bacteria; assay: Experiment 9: growth of PA01 after pulsed 400 nm photo-activation, shorter pulses; format: cell-based; conditions: antibiotic concentration per the 13th table
Experimental: as §5, §6
A→Pulse ON 3 ms energy 0.03 J, OFF 27 ms during 10 minutes
G→Pulse ON 1 ms energy 0.01 J, OFF 9 ms during 10 minutes
as §8, §9, §10, §11, §12, §13, §14

[8] = test system: MU 50 multi-resistant bacteria; assay: Experiment 7: growth of MU50 after pulsed 400 nm photo-activation of antibiotics; format: cell-based, Staphylococcus aureus
Experimental: as §5
In Experiment 7 MU 50 multi-resistant bacteria as described above for Experiments 1 to 3 were tested.
as §7, §8, §9, §10, §11, §12, §13, §14

[9] = remaining bacteria of experiment 12 proliferated and treated again
[10] = Staphylococcus aureus, MRSA, overnight incubation, read-out: MIC
[11] = A: 400 nm LED pulse ON 10 ms energy 0.1 J, OFF 90 ms during 10 minutes
[12] = G: 400 nm LED pulse ON 5 ms energy 0.05 J, OFF 45 ms during 10 minutes
[13] = A: 400 nm LED pulse ON 3 ms energy 0.03 J, OFF 27 ms during 10 minutes
[14] = G: 400 nm LED pulse ON 1 ms energy 0.01 J, OFF 9 ms during 10 minutes
[15] = second treatment according to experiment 12
[16] = A: 400 nm LED pulse ON 10 ms energy 0.1 J, OFF 90 ms during 10 minutes, antibiotic concentration per the 11th table, approx. ten hours after t3
[17] = D: control no pulse, antibiotic concentration per the 11th table
[18] = G: 400 nm LED pulse ON 5 ms energy 0.05 J, OFF 45 ms during 10 minutes, antibiotic concentration per the 11th table

| Molecule | E: Staphylococcus aureus MU500 (no irradiation), replication [4] | A: Pseudomonas aeruginosa (no irradiation), replication (Pseudomonas aeruginosa) | B: Pseudomonas aeruginosa (irradiation), replication (Pseudomonas aeruginosa) | C: Acinetobacter (no irradiation), replication (Acinetobacter [5]) | D Acinetobacter (irradiation), replication (Acinetobacter [5]) | difference in absorption values (595-600 nm) between t4 and t3 [6, 11] | difference in absorption values (595-600 nm) between t4 and t3 ([6]; D: control no pulse) | difference in absorption values (595-600 nm) between t4 and t3 [6, 12] | F: Staphylococcus aureus MU500 (irradiation), replication [4] | MIC ([3]; overnight incubation) [µg/mL] | also measured |
| --- | --- | --- | --- | --- | --- | --- | --- | --- | --- | --- | --- |
| O=C(O)c1cn(C2CC2)c2cc(N3CCNCC3)c(F)cc2c1=O [Ciprofloxacin] | R (Bacteria can replicate after the treatment) | R (Bacteria can replicate after the treatment) | NR (No replication) | R (Bacteria can replicate after the treatment) | NR (No replication) |  |  |  |  |  | E: Staphylococcus aureus MU500 (no irradiation), replication, second treatment [1, 9]: R (Bacteria can replicate after the treatment); D Acinetobacter (irradiation), replication, second treatment (Acinetobacter [2]): NR (No replication); C: Acinetobacter (no irradiation), replication, second treatment (Acinetobacter [2]): R (Bacteria can replicate after the treatment); MIC [3, 10]: > 16 µg/mL |
| CC[C@H]1OC(=O)[C@H](C)[C@@H](O[C@H]2C[C@@](C)(OC)[C@@H](O)[C@H](C)O2)[C@H](C)[C@@H](O[C@@H]2O[C@H](C)C[C@H](N(C)C)[C@H]2O)[C@](C)(OC)C[C@@H](C)C(=O)[C@H](C)[C@@H](O)[C@]1(C)O [Clarithromycin] | R (Bacteria can replicate after the treatment) | R (Bacteria can replicate after the treatment) | PR (Bacteria can replicate partially) | R (Bacteria can replicate after the treatment) | R (Bacteria can replicate after the treatment) | 0.0106 | 0.1041 | −0.0396 | R (Bacteria can replicate after the treatment) |  | difference in absorption values (595-600 nm) between t4 and t3 [7, 13]: −0.1708; difference in absorption values (595-600 nm) between t4 and t3 ([7]; D: control no pulse): −0.0024; difference in absorption values (595-600 nm) between t4 and t3 [7, 14]: −0.0994; difference in absorption values (595-600 nm) between t4 and t3 [8]: 0.0956; difference in absorption values (595-600 nm) between t4 and t3 ([8]; 10 min): −0.1383; difference in absorption values (595-600 nm) between t4 and t3 ([8]; 10 h): −0.1249 |
| C[C@H]1c2cccc(O)c2C(=O)C2=C(O)[C@]3(O)C(=O)C(C(N)=O)=C(O)[C@@H](N(C)C)[C@@H]3[C@@H](O)[C@@H]21 [Doxycycline] | R (Bacteria can replicate after the treatment) | R (Bacteria can replicate after the treatment) | NR (No replication) | R (Bacteria can replicate after the treatment) | NR (No replication) | −0.0365 | 0.0735 | 0.0181 | NR (No replication) |  | F: Staphylococcus aureus MU500 (irradiation), replication, second treatment ([1]; remaining bacteria of experiment 12 proliferated and treated again, irradiation): NR (No replication); E: Staphylococcus aureus MU500 (no irradiation), replication, second treatment [1, 9]: R (Bacteria can replicate after the treatment); resistance to the treatment of the second generation resistant bacteria [1, 15]: no resistance to the treatment; D Acinetobacter (irradiation), replication, second treatment (Acinetobacter [2]): NR (No replication); C: Acinetobacter (no irradiation), replication, second treatment (Acinetobacter [2]): R (Bacteria can replicate after the treatment); resistance to the treatment of the second generation resistant bacteria (Acinetobacter [2]; [15]): no resistance to the treatment; difference in absorption values (595-600 nm) between t4 and t3 [8, 16]: −0.083; difference in absorption values (595-600 nm) between t4 and t3 [8, 17]: 0.0072; difference in absorption values (595-600 nm) between t4 and t3 [8, 18]: −0.0429 |
| CCn1cc(C(=O)O)c(=O)c2cc(F)c(N3CCNCC3)cc21 [Norfloxacin] | R (Bacteria can replicate after the treatment) | R (Bacteria can replicate after the treatment) | NR (No replication) | R (Bacteria can replicate after the treatment) | NR (No replication) | −0.0491 | 0.0039 | −0.1879 | PR (Bacteria can replicate partially) |  | difference in absorption values (595-600 nm) between t4 and t3 [8, 16]: −0.1198; difference in absorption values (595-600 nm) between t4 and t3 [8, 17]: −0.1119; difference in absorption values (595-600 nm) between t4 and t3 [8, 18]: −0.0589 |
| Cc1onc(-c2ccccc2)c1C(=O)N[C@@H]1C(=O)N2[C@@H]1SC(C)(C)[C@@H]2C(=O)O [Oxacillin] |  |  |  |  |  |  |  |  |  |  | MIC [3, 10]: > 32 µg/mL |
| CO[C@H]1/C=C/O[C@@]2(C)Oc3c(C)c(O)c4c(O)c(c(/C=N/N5CCN(C)CC5)c(O)c4c3C2=O)NC(=O)/C(C)=C\C=C\[C@H](C)[C@H](O)[C@@H](C)[C@@H](O)[C@@H](C)[C@H](OC(C)=O)[C@@H]1C [Rifampicin] |  |  |  |  |  | 0.0137 | 0.0679 | −0.0678 |  |  | difference in absorption values (595-600 nm) between t4 and t3 [7, 13]: −0.0808; difference in absorption values (595-600 nm) between t4 and t3 ([7]; D: control no pulse): 0.0562; difference in absorption values (595-600 nm) between t4 and t3 [7, 14]: −0.0196; difference in absorption values (595-600 nm) between t4 and t3 [8]: −0.0542; difference in absorption values (595-600 nm) between t4 and t3 ([8]; 10 min): −0.0914; difference in absorption values (595-600 nm) between t4 and t3 ([8]; 10 h): −0.1027 |
| CN[C@H](CC(C)C)C(=O)N[C@H]1C(=O)N[C@@H](CC(N)=O)C(=O)N[C@H]2C(=O)N[C@H]3C(=O)N[C@H](C(=O)N[C@H](C(=O)O)c4cc(O)cc(O)c4-c4cc3ccc4O)[C@H](O)c3ccc(c(Cl)c3)Oc3cc2cc(c3O[C@@H]2O[C@H](CO)[C@@H](O)[C@H](O)[C@H]2O[C@H]2C[C@](C)(N)[C@H](O)[C@H](C)O2)Oc2ccc(cc2Cl)[C@H]1O [Vancomycin] |  |  |  |  |  |  |  |  |  |  | MIC ([3]; Staphylococcus aureus, MRSA): 8 µg/mL (≈ 5.52 µM) |
| Gentamicin |  |  |  |  |  |  |  |  |  | >16 |  |
| Penicillin |  |  |  |  |  |  |  |  |  | >8 |  |
| Teicopanin |  |  |  |  |  |  |  |  |  | 8 |  |
